The kinase profiling compilation of Christmann-Franck et al. (2016)
Each block holds one compound with its values, some of them ahead of it.

Experiments:
Test in all cases: radiometric filter-binding kinase assay
[1] = tested on: AKT1 (human), P31749 [S473D]
AURKB (human) = AURKB (human) (UniProt Q96GD4)
CDK2 CCNA2 (human) = CDK2 CCNA2 (human) (UniProt P20248+P24941)
CHEK1 (human) = CHEK1 (human) (UniProt O14757)
CHEK2 (human) = CHEK2 (human) (UniProt O96017)
CSK (human) = CSK (human) (UniProt P41240)
CaMK1 (human) = CaMK1 (human) (UniProt Q14012)
DYRK3 (human) = DYRK3 (human) (UniProt O43781)
EPHA2 (human) = EPHA2 (human) (UniProt P29317)
EPHA4 (human) = EPHA4 (human) (UniProt P54764)
EPHB1 (human) = EPHB1 (human) (UniProt P54762)
EPHB2 (human) = EPHB2 (human) (UniProt P29323)
EPHB3 (human) = EPHB3 (human) (UniProt P54753)
GCK (human) = GCK (human) (UniProt Q12851)
IKBKB (human) = IKBKB (human) (UniProt O14920)
LCK (mouse) = conditions: accession and sequence are those of the human protein
MAP2K1 (human) = MAP2K1 (human) (UniProt Q02750)
MAP3K11 (human) = MAP3K11 (human) (UniProt Q16584)
MAP3K7 TAB1 (human) = MAP3K7 TAB1 (human) (UniProt Q15750+O43318)
MAPK10 (human) = MAPK10 (human) (UniProt P53779)
MAPK8 (human) = MAPK8 (human) (UniProt P45983)
MARK2 (human) = MARK2 (human) (UniProt Q7KZI7)
MINK1 (human) = MINK1 (human) (UniProt Q8N4C8)
MST4 (human) = MST4 (human) (UniProt Q9P289); conditions: compound 10.0 µM
MYLK (human) = MYLK (human) (UniProt Q15746)
NUAK1 (human) = NUAK1 (human) (UniProt O60285)
[2] = tested on: PAK2 (human), Q13177 [T402E]
PAK4 (human) = PAK4 (human) (UniProt O96013)
PAK6 (human) = PAK6 (human) (UniProt Q9NQU5)
PKN2 (human) = PKN2 (human) (UniProt Q16513)
ROCK2 (rat) = conditions: accession and sequence are those of the human protein
RPS6KA3 KD1 KD2 (human) = RPS6KA3 KD1 KD2 (human) (UniProt P51812)
SRC (human) = SRC (human) (UniProt P12931)
TAOK1 (human) = TAOK1 (human) (UniProt Q7L7X3)
TBK1 (human) = TBK1 (human) (UniProt Q9UHD2)
TTK (human) = TTK (human) (UniProt P33981)

Chain of EPHA2 (human) (P29317 whole entry, looked up): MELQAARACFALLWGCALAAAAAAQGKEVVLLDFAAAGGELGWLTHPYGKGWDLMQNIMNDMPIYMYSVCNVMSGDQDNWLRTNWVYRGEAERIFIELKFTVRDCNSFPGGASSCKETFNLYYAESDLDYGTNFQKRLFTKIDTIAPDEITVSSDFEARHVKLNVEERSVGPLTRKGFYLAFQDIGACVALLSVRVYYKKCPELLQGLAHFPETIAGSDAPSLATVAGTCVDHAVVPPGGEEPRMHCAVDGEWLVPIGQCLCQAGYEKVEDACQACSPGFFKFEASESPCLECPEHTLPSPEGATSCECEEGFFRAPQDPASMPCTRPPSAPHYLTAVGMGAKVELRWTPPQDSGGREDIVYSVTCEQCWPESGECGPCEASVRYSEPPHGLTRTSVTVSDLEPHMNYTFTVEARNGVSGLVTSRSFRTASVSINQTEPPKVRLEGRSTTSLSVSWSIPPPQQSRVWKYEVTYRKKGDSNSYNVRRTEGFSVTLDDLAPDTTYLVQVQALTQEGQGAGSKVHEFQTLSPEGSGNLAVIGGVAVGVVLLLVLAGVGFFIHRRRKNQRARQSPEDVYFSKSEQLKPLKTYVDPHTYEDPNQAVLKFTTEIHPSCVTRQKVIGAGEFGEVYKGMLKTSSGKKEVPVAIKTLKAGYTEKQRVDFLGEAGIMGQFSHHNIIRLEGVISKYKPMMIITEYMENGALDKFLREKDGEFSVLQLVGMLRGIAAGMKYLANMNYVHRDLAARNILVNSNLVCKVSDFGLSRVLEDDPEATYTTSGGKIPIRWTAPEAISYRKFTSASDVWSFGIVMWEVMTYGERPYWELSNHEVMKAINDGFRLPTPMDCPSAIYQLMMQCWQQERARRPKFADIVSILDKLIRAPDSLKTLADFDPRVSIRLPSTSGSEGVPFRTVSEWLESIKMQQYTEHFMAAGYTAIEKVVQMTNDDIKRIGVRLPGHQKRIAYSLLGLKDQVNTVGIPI
Chain of MAPK10 (human) (P53779 whole entry, looked up): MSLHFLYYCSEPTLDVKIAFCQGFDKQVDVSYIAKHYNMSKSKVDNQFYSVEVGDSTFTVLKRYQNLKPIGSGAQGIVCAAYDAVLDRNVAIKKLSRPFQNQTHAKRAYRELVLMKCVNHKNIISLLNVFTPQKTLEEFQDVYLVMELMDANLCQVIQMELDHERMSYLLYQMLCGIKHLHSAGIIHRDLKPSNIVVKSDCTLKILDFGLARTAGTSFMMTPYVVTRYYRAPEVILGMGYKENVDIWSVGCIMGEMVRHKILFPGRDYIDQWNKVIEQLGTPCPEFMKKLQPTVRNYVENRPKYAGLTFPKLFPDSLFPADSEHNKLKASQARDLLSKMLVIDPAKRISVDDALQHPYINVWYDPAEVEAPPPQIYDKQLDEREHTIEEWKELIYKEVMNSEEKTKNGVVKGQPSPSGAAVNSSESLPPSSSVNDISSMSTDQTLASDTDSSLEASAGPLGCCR
Chain of PAK2 (human), Q13177 [T402E] (Q13177 whole entry T402E, looked up): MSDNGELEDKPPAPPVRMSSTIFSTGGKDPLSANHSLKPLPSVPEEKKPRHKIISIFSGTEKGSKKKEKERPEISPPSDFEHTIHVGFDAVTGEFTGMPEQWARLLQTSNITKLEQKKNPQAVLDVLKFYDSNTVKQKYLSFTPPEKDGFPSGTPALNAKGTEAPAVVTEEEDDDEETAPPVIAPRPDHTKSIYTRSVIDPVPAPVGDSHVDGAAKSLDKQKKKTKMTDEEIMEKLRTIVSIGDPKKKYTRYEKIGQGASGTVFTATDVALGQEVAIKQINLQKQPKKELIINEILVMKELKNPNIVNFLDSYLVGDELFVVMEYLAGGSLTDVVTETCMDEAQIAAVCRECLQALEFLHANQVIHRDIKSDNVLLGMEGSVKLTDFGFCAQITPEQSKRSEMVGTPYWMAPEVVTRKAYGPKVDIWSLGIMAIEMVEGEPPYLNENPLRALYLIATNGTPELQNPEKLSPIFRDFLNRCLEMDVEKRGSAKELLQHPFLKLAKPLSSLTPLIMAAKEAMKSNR
Chain of GCK (human) (Q12851 whole entry, looked up): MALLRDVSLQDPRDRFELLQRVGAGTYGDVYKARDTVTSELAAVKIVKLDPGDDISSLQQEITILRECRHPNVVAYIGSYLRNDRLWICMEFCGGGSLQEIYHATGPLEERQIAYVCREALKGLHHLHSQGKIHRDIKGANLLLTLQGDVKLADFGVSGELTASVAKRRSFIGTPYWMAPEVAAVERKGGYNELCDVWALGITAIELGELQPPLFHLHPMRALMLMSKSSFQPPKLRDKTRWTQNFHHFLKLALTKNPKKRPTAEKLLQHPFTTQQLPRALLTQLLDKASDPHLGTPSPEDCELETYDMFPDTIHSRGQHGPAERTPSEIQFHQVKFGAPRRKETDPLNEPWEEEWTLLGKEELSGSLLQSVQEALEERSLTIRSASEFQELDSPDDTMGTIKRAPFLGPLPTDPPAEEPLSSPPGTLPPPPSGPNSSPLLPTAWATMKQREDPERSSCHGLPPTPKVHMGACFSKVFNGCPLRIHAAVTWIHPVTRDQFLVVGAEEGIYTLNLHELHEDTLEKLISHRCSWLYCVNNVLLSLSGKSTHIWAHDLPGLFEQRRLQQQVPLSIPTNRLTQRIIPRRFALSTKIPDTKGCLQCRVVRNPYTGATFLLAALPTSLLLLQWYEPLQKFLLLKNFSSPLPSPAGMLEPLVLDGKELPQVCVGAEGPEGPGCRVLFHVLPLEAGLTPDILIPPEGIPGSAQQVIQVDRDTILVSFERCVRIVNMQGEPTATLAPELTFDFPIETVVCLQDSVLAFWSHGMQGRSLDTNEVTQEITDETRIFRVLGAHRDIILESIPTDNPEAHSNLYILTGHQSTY
Chain of EPHB2 (human) (P29323 whole entry, looked up): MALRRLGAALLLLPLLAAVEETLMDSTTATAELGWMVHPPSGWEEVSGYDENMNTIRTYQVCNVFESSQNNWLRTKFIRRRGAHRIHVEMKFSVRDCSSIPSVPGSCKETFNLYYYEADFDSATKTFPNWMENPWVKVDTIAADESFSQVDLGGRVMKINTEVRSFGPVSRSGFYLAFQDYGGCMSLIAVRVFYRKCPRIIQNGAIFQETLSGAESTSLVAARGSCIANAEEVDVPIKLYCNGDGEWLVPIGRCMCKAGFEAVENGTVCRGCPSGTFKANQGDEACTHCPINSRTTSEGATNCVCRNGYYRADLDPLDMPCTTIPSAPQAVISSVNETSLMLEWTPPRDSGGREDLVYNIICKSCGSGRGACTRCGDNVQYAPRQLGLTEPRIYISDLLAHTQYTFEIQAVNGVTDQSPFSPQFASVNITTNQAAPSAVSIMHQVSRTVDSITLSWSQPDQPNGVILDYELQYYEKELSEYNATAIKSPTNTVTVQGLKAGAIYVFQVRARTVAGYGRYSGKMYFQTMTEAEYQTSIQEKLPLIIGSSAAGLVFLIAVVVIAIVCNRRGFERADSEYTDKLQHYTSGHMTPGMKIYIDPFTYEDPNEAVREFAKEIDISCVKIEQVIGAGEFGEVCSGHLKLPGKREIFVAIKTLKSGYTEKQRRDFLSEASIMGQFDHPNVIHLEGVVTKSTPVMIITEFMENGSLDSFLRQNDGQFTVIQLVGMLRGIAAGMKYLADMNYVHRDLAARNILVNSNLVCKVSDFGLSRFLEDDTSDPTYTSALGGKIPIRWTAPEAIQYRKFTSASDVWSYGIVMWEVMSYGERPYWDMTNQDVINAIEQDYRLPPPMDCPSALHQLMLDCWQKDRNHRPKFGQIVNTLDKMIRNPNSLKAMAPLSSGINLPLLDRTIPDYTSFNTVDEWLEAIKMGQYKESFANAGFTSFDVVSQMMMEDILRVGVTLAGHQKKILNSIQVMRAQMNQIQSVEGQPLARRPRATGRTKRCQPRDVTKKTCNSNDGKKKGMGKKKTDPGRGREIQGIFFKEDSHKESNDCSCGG
Chain of IKBKB (human) (O14920 whole entry, looked up): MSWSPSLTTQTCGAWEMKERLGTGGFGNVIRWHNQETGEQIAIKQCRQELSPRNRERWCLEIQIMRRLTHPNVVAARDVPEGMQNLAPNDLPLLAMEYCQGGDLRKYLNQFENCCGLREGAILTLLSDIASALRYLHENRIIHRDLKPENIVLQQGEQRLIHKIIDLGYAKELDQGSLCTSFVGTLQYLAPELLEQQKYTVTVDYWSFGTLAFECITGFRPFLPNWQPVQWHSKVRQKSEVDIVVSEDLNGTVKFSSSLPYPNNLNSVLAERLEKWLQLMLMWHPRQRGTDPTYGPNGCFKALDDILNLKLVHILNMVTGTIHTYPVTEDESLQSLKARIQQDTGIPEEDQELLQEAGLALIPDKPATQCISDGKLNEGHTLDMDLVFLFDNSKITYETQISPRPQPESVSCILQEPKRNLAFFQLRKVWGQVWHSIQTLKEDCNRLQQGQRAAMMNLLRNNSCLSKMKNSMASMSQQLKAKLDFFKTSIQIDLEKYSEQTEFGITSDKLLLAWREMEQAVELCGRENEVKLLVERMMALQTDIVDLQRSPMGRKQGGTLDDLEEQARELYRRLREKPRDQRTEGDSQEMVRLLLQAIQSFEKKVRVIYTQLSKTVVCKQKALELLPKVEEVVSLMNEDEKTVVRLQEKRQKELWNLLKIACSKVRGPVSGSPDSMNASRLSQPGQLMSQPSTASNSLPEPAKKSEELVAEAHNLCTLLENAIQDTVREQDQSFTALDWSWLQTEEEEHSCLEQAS
Chain of AKT1 (human), P31749 [S473D] (P31749 whole entry S473D, looked up): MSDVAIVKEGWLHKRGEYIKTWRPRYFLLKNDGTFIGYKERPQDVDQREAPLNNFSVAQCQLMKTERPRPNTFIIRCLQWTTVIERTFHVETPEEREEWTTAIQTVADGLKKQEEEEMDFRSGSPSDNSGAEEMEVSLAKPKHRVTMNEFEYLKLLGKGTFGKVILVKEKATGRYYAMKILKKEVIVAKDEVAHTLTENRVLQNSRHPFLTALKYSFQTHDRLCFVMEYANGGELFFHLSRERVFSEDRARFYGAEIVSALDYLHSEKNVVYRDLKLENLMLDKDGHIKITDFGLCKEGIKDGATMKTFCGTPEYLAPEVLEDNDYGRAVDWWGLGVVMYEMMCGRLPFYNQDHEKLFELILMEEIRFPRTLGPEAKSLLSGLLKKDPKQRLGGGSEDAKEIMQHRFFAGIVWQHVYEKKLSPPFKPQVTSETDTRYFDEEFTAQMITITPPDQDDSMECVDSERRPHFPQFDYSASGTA

residual activity ([1]; compound 10.0 µM): 95%
residual activity ([1]; compound 100.0 µM): 88%
residual activity (AURKB (human); compound 10.0 µM): 88%
residual activity (CDK2 CCNA2 (human); compound 10.0 µM): 116%
residual activity (CDK2 CCNA2 (human); compound 100.0 µM): 92%
residual activity (CHEK1 (human); compound 10.0 µM): 90%
residual activity (CHEK1 (human); compound 100.0 µM): 96%
residual activity (CHEK2 (human); compound 10.0 µM): 100%
residual activity (CSK (human); compound 10.0 µM): 69%
residual activity (CSK (human); compound 100.0 µM): 67%
residual activity (CaMK1 (human); compound 10.0 µM): 74%
residual activity (DYRK3 (human); compound 10.0 µM): 99%
residual activity (EPHA2 (human); compound 10.0 µM): 109%
residual activity (EPHA4 (human); compound 10.0 µM): 108%
residual activity (EPHB1 (human); compound 10.0 µM): 97%
residual activity (EPHB2 (human); compound 10.0 µM): 116%
residual activity (EPHB3 (human); compound 10.0 µM): 107%
residual activity (GCK (human); compound 10.0 µM): 97%
residual activity (IKBKB (human); compound 10.0 µM): 96%
residual activity (LCK (mouse); compound 10.0 µM): 106%
residual activity (LCK (mouse); compound 100.0 µM): 72%
residual activity (MAP2K1 (human); compound 10.0 µM): 89%
residual activity (MAP2K1 (human); compound 100.0 µM): 99%
residual activity (MAP3K11 (human); compound 10.0 µM): 73%
residual activity (MAP3K7 TAB1 (human); compound 10.0 µM): 96%
residual activity (MAPK10 (human); compound 10.0 µM): 99%
residual activity (MAPK8 (human); compound 10.0 µM): 92%
residual activity (MAPK8 (human); compound 100.0 µM): 78%
residual activity (MARK2 (human); compound 10.0 µM): 93%
residual activity (MINK1 (human); compound 10.0 µM): 72%
residual activity (MST4 (human)): 99%
residual activity (MYLK (human); compound 10.0 µM): 74%
residual activity (NUAK1 (human); compound 10.0 µM): 97%
residual activity ([2]; compound 10.0 µM): 87%
residual activity (PAK4 (human); compound 10.0 µM): 90%
residual activity (PAK6 (human); compound 10.0 µM): 83%
residual activity (PKN2 (human); compound 10.0 µM): 95%
residual activity (ROCK2 (rat); compound 10.0 µM): 77%
residual activity (ROCK2 (rat); compound 100.0 µM): 76%
residual activity (RPS6KA3 KD1 KD2 (human); compound 10.0 µM): 72%
residual activity (SRC (human); compound 10.0 µM): 80%
residual activity (TAOK1 (human); compound 10.0 µM): 82%
residual activity (TBK1 (human); compound 10.0 µM): 94%
residual activity (TTK (human); compound 10.0 µM): 87%
SMILES: Cc1ccc2c(c1)C(=O)[C@@]1(O)CCN(c3ccccc3)C1=N2

residual activity ([1]; compound 1.0 µM): 98%
residual activity ([1]; compound 10.0 µM): 85%
residual activity (AURKB (human); compound 1.0 µM): 6%
residual activity (AURKB (human); compound 10.0 µM): 4%
residual activity (CDK2 CCNA2 (human); compound 1.0 µM): 100%
residual activity (CDK2 CCNA2 (human); compound 10.0 µM): 99%
residual activity (CHEK1 (human); compound 1.0 µM): 79%
residual activity (CHEK1 (human); compound 10.0 µM): 64%
residual activity (CHEK2 (human); compound 1.0 µM): 19%
residual activity (CHEK2 (human); compound 10.0 µM): 19%
residual activity (CSK (human); compound 1.0 µM): 81%
residual activity (CSK (human); compound 10.0 µM): 74%
residual activity (CaMK1 (human); compound 1.0 µM): 90%
residual activity (CaMK1 (human); compound 10.0 µM): 80%
residual activity (DYRK3 (human); compound 1.0 µM): 75%
residual activity (DYRK3 (human); compound 10.0 µM): 82%
residual activity (EPHA2 (human); compound 1.0 µM): 66%
residual activity (EPHA2 (human); compound 10.0 µM): 53%
residual activity (EPHA4 (human); compound 1.0 µM): 57%
residual activity (EPHA4 (human); compound 10.0 µM): 45%
residual activity (EPHB1 (human); compound 1.0 µM): 79%
residual activity (EPHB1 (human); compound 10.0 µM): 95%
residual activity (EPHB2 (human); compound 1.0 µM): 62%
residual activity (EPHB2 (human); compound 10.0 µM): 50%
residual activity (EPHB3 (human); compound 1.0 µM): 40%
residual activity (EPHB3 (human); compound 10.0 µM): 27%
residual activity (GCK (human); compound 1.0 µM): 24%
residual activity (GCK (human); compound 10.0 µM): 8%
residual activity (IKBKB (human); compound 1.0 µM): 103%
residual activity (IKBKB (human); compound 10.0 µM): 78%
residual activity (LCK (mouse); compound 1.0 µM): 35%
residual activity (LCK (mouse); compound 10.0 µM): 33%
residual activity (MAP2K1 (human); compound 1.0 µM): 78%
residual activity (MAP2K1 (human); compound 10.0 µM): 75%
residual activity (MAP3K11 (human); compound 1.0 µM): 5%
residual activity (MAP3K11 (human); compound 10.0 µM): 3%
residual activity (MAP3K7 TAB1 (human); compound 1.0 µM): 100%
residual activity (MAP3K7 TAB1 (human); compound 10.0 µM): 70%
residual activity (MAPK10 (human); compound 1.0 µM): 99%
residual activity (MAPK10 (human); compound 10.0 µM): 77%
residual activity (MAPK8 (human); compound 1.0 µM): 92%
residual activity (MAPK8 (human); compound 10.0 µM): 87%
residual activity (MARK2 (human); compound 1.0 µM): 39%
residual activity (MARK2 (human); compound 10.0 µM): 35%
residual activity (MINK1 (human); compound 1.0 µM): 5%
residual activity (MINK1 (human); compound 10.0 µM): 1%
residual activity (MST4 (human)): 47%
residual activity (MYLK (human); compound 1.0 µM): 89%
residual activity (MYLK (human); compound 10.0 µM): 61%
residual activity (NUAK1 (human); compound 1.0 µM): 35%
residual activity (NUAK1 (human); compound 10.0 µM): 35%
residual activity ([2]; compound 1.0 µM): 94%
residual activity ([2]; compound 10.0 µM): 111%
residual activity (PAK4 (human); compound 1.0 µM): 53%
residual activity (PAK4 (human); compound 10.0 µM): 41%
residual activity (PAK6 (human); compound 1.0 µM): 95%
residual activity (PAK6 (human); compound 10.0 µM): 67%
residual activity (PKN2 (human); compound 1.0 µM): 63%
residual activity (PKN2 (human); compound 10.0 µM): 64%
residual activity (ROCK2 (rat); compound 1.0 µM): 93%
residual activity (ROCK2 (rat); compound 10.0 µM): 61%
residual activity (RPS6KA3 KD1 KD2 (human); compound 1.0 µM): 82%
residual activity (RPS6KA3 KD1 KD2 (human); compound 10.0 µM): 57%
residual activity (SRC (human); compound 1.0 µM): 57%
residual activity (SRC (human); compound 10.0 µM): 64%
residual activity (TAOK1 (human); compound 1.0 µM): 61%
residual activity (TAOK1 (human); compound 10.0 µM): 27%
residual activity (TBK1 (human); compound 1.0 µM): 21%
residual activity (TBK1 (human); compound 10.0 µM): 17%
residual activity (TTK (human); compound 1.0 µM): 83%
SMILES: COc1cc2ncn(-c3cc(OCc4ccccc4S(C)(=O)=O)c(C#N)s3)c2cc1OC
